{
  "source": "patent US11672864B2",
  "about": "“Nanostructured gels capable of controlled release of encapsulated agents” (The Brigham and Women's Hospital, Inc., priority 2010, dated 2023)",
  "key": {"[1]": {"assay": "Gelation and stability of Abz-derived amphiphiles", "assay_type": "physicochemical", "description": "A variety of Abz-derived amphiphiles were synthesized (Scheme 3-1). […] In general, mixtures of polar organic solvents with water gave the best gelation results, with only two pure organogels forming (Abz-Alloc in glycerol, and Abz-Chol in 1,4-dioxane). […] The four amphiphiles had widely different solubility and gelation properties, with each amphiphile forming at least two gels.\nGelation. To a vial containing solid amphiphile was added the appropriate solvent. The vial was sealed and heated over a heat gun (˜110° C. max) until amphiphile fully dissolved. The vial was allowed to cool undisturbed at room temperature, during which time gel formed. For all characterization gels were allowed to form for at least 45 minutes."}, "[2]": {"tested_on": "glioma cell line, G55", "assay": "Cytotoxicity of CPT encapsulated SMS self-assembled fibers, G55", "assay_type": "cell-based", "details": "G55 cells in culture", "from_the_text": "(§1) Cytotoxicity Studies of CPT Encapsulated SMS Self-Assembled Fibers. Prior to in vivo studies, evaluation of efficacy of drug delivery systems using appropriate cell lines is an essential step. Efficacy of CPT loaded SMS self-assembled fibers were investigated using glioma cell line, G55 and control cell line fibroblast, NIH3T3. […] We hypothesize that highly proliferative glioma G55 cells secretes high concentrations of enzymes that degrade the self-assembled fibers to release CPT efficiently, whereas free form of CPT degrades in the media due to its low half-life at physiological conditions. […] Encapsulation of Camptothecin and PARP-Inhibitor (AGO14699)."}, "[3]": {"tested_on": "fibroblasts (NIH3T3)", "assay": "Cytotoxicity of CPT encapsulated SMS self-assembled fibers, NIH3T3", "assay_type": "cell-based", "details": "Mus musculus; NIH3T3 fibroblasts in culture; unit inferred", "from_the_text": "as §1"}, "[4]": {"assay": "Gelation ability and minimum gelation concentration of SMS", "assay_type": "physicochemical", "details": "for Gelation ability: concentration around 5-9%", "from_the_text": "MGC values of SMS have varied from 3 to 8 wt/v %."}, "[5]": {"assay": "Gelation of Asc-Pal in solvents", "assay_type": "physicochemical", "description": "Typically, solvents (0.2 mL) were added to a glass scintillation vial with the gelator (0.5-5 wt/vol %) and sealed with a screw cap. The vial was heated to about 60-80° C. until the gelator was completely dissolved. The vial was placed on a stable surface and allowed to cool to room temperature. Typically after 15-45 min, the solution was transitioned into a viscous gel. Gelation was considered to have occurred when no gravitational flow was observed upon inversion of the glass vial, and resulted hydrogels are injectable. Asc-Pal formed gels in water, benzene, toluene, carbon tetrachloride, and acetonitrile; while a precipitate formed in dimethylformamide and dimethylsulfoxide. Asc-Pal was soluble in chloroform and methanol."}, "[6]": {"assay": "Gelation of Asc-Pal without and with dexamethasone", "assay_type": "physicochemical", "details": "20% ethanol in water", "description": "Self-assembly of the amphiphiles is a delicate process that could be affected by additional agents. To understand the affect of dexamethasone, gelation of Asc-Pal has been explored in 20% ethanol in water by varying concentration of Asc-Pal (1-5% wt/v) while keeping concentration of dexamethasone (2 mg) constant. Results in Table 6-2 reveal that presence of dexamethasone facilitates the self-assembly of Asc-Pal and strengthen the gelation."}},
  "data": [
    {"molecule": "C=CCOC(=O)Nc1cccc(C(N)=O)c1", "note": "[Abz-Alloc]", "values": [
      {"measurement": "Gelation in pure organic solvent", "setting": "[1]; glycerol", "value": "organogels"}
    ]},
    {"molecule": "CC[C@@]1(O)C(=O)OCc2c1cc1n(c2=O)Cc2cc3ccccc3nc2-1", "note": "[Camptothecin]", "values": [
      {"measurement": "IC50", "setting": "[2]", "value": 30, "unit": "nM"},
      {"measurement": "IC50", "setting": "[3]", "value": 3.9, "unit": "nM"}
    ]},
    {"molecule": "NC(=O)c1cccc(NC(=O)Oc2ccc([N+](=O)[O-])cc2)c1", "note": "[Abz-PNP]", "values": [
      {"measurement": "Stability of amphiphile", "setting": "[1]", "value": "decompose spontaneously"}
    ]},
    {"molecule": "CCCCCCCCCCCCCCCCCC(=O)OC[C@@H](O)[C@H]1OC[C@H](O)[C@H]1O", "note": "[Sorbitane Monostearate, sorbitan monostearate]", "values": [
      {"measurement": "Gelation ability", "setting": "[4]; Acetone", "value": "Precipitate"},
      {"measurement": "Gelation ability", "setting": "[4]; Acetonitrile (CH3CN)", "value": "Precipitate"},
      {"measurement": "Gelation ability", "setting": "[4]; Chloroform", "value": "Soluble"},
      {"measurement": "Gelation ability", "setting": "[4]; Dimethyl formamide (DMF)", "value": "Soluble"},
      {"measurement": "Minimum Gelation Concentration", "setting": "[4]; Dimethyl sulfoxide (DMSO)", "value": 3, "unit": "% Wt/V %"},
      {"measurement": "Gelation in gelling solvent", "setting": "[4]; Dimethyl sulfoxide (DMSO) (Table 4-2)", "value": "Gel"},
      {"measurement": "Gelation ability", "setting": "[4]; Dimethyl sulfoxide (DMSO)", "value": "Gel"},
      {"measurement": "Gelation ability", "setting": "[4]; Dioxane", "value": "Soluble"},
      {"measurement": "Gelation ability", "setting": "[4]; Ethanol", "value": "Soluble"},
      {"measurement": "Gelation ability", "setting": "[4]; Ethyl acetate", "value": "Emulsion"},
      {"measurement": "Minimum Gelation Concentration", "setting": "[4]; Ethylene glycol", "value": 5, "unit": "% Wt/V %"},
      {"measurement": "Gelation in gelling solvent", "setting": "[4]; Ethylene glycol (Table 4-2)", "value": "Gel"},
      {"measurement": "Gelation in gelling solvent", "setting": "[4]; Glycerol (Table 4-2)", "value": "Gel"},
      {"measurement": "Gelation ability", "setting": "[4]; Glycerol", "value": "Gel"},
      {"measurement": "Gelation ability", "setting": "[4]; Isobutanol", "value": "Soluble"},
      {"measurement": "Gelation ability", "setting": "[4]; Isopropanol", "value": "Soluble"},
      {"measurement": "Minimum Gelation Concentration", "setting": "[4]; Isopropyl palmitate", "value": 3, "unit": "% Wt/V %"},
      {"measurement": "Gelation in gelling solvent", "setting": "[4]; Isopropyl palmitate (Table 4-2)", "value": "Gel"},
      {"measurement": "Gelation ability", "setting": "[4]; Isopropyl palmitate", "value": "Clear Gel"},
      {"measurement": "Gelation ability", "setting": "[4]; Methanol", "value": "Precipitate"},
      {"measurement": "Gelation ability", "setting": "[4]; Mono-ethylene glycol", "value": "Weak Gel"},
      {"measurement": "Gelation ability", "setting": "[4]; Polyethylene glycol dimethyl acrylate", "value": "Increased"},
      {"measurement": "Gelation ability", "setting": "[4]; Tetrachloro methane", "value": "Soluble"},
      {"measurement": "Gelation ability", "setting": "[4]; Tetrahydrofuran (THF)", "value": "Soluble"},
      {"measurement": "Gelation ability", "setting": "[4]; Toluene", "value": "Soluble"},
      {"measurement": "Minimum Gelation Concentration", "setting": "[4]; Water", "value": 3, "unit": "% Wt/V %"},
      {"measurement": "Gelation in gelling solvent", "setting": "[4]; Water (Table 4-2)", "value": "Gel"},
      {"measurement": "Gelation ability", "setting": "[4]; Water", "value": "Gel"},
      {"measurement": "Gelation ability", "setting": "[4]; Xylene", "value": "Soluble"},
      {"measurement": "Minimum gelation concentrations (MGC)", "setting": "[4]; across different solvents", "value": "3 to 8", "unit": "wt/v %"},
      {"measurement": "Minimum Gelation Concentration", "setting": "[4]; glycerol", "value": 8, "unit": "% Wt/V %"},
      {"measurement": "Minimum Gelation Concentration", "setting": "[4]; n-hexadecane", "value": 2, "unit": "% Wt/V %"},
      {"measurement": "Gelation in gelling solvent", "setting": "[4]; n-hexadecane (Table 4-2)", "value": "Gel"},
      {"measurement": "Gelation ability", "setting": "[4]; n-hexadecane", "value": "Gel"},
      {"measurement": "Minimum Gelation Concentration", "setting": "[4]; n-hexane", "value": 4, "unit": "% Wt/V %"},
      {"measurement": "Gelation in gelling solvent", "setting": "[4]; n-hexane (Table 4-2)", "value": "Gel"},
      {"measurement": "Gelation ability", "setting": "[4]; n-hexane", "value": "Gel"}
    ]},
    {"molecule": "CC(C)CCC[C@@H](C)[C@H]1CC[C@H]2[C@@H]3CC=C4CC(OC(=O)Nc5cccc(C(N)=O)c5)CC[C@]4(C)[C@H]3CC[C@]12C", "note": "(stereo partly shown) [Abz-Chol]", "values": [
      {"measurement": "Gelation in pure organic solvent", "setting": "[1]; 1,4-dioxane", "value": "organogels"}
    ]},
    {"molecule": "CCCCCCCCCCCCCCCC(=O)OC[C@H](O)[C@H]1OC(=O)C(O)=C1O", "note": "[Asc-Pal, Ascorbyl palmitate]", "values": [
      {"measurement": "Gelation behaviour", "setting": "[5]; acetonitrile", "value": "gels"},
      {"measurement": "Gelation behaviour", "setting": "[5]; benzene", "value": "gels"},
      {"measurement": "Gelation behaviour", "setting": "[5]; carbon tetrachloride", "value": "gels"},
      {"measurement": "Gelation behaviour", "setting": "[5]; chloroform", "value": "soluble"},
      {"measurement": "Gelation behaviour", "setting": "[5]; dimethylformamide", "value": "precipitate"},
      {"measurement": "Gelation behaviour", "setting": "[5]; dimethylsulfoxide", "value": "precipitate"},
      {"measurement": "Gelation behaviour", "setting": "[5]; methanol", "value": "soluble"},
      {"measurement": "Gelation behaviour", "setting": "[5]; toluene", "value": "gels"},
      {"measurement": "Gelation behaviour", "setting": "[5]; water, gelator 0.5-5 wt/vol %", "value": "gels"},
      {"measurement": "Gelation", "setting": "[6]; 1% Asc-Pal, with dex (2 mg)", "value": "Weak"},
      {"measurement": "Gelation", "setting": "[6]; 1% Asc-Pal, without drug", "value": "Not gel"},
      {"measurement": "Gelation", "setting": "[6]; 2% Asc-Pal, with dex (2 mg)", "value": "Gel"},
      {"measurement": "Gelation", "setting": "[6]; 2% Asc-Pal, without drug", "value": "weak"},
      {"measurement": "Gelation", "setting": "[6]; 3% Asc-Pal, with dex (2 mg)", "value": "Gel"},
      {"measurement": "Gelation", "setting": "[6]; 3% Asc-Pal, without drug", "value": "Gel"},
      {"measurement": "Gelation", "setting": "[6]; 4% Asc-Pal, with dex (2 mg)", "value": "Gel"},
      {"measurement": "Gelation", "setting": "[6]; 4% Asc-Pal, without drug", "value": "Gel"},
      {"measurement": "Gelation", "setting": "[6]; 5% Asc-Pal, with dex (2 mg)", "value": "Gel"},
      {"measurement": "Gelation", "setting": "[6]; 5% Asc-Pal, without drug", "value": "Gel"}
    ]}
  ]
}
